According to US20250312349A1, “COMPOSITION AND METHODS OF TREATING INTRACELLULAR PATHOGEN INFECTION” (UNIVERSITY HOSPITALS CLEVELAND MEDICAL CENTER, priority 2024, published 2025):

How the values were obtained:
ME49 T. gondii [1] = assay: Suboptimal dose combination in mice with ocular and cerebral toxoplasmosis; assay type: in vivo, C57BL/6 mice; conditions: 2.5 mg/Kg once a day, 14 days
Experimental: C57BL/6 mice that had been infected with tissue cysts of ME49 T. gondii for 4 weeks (at a time when animals have developed ocular and cerebral toxoplasmosis), were treated with suboptimal dose of Saracatinib (2.5 mg/Kg once a day) with or without suboptimal dose of Pyrimethamine (4.2 mg/Kg once a day) for 14 days.

[2] = Brain penetration and tolerability of Saracatinib; assay type: in vivo; conditions: mice, 10 or 15 mg kg^-1 twice per day
T. gondii = assay: In vitro infection of mammalian cells with T. gondii tachyzoites, counted by light microscopy; assay type: cell-based, Toxoplasma gondii
Experimental: Chinese Hamster Ovary (CHO; a gift from Cathleen Carlin, Case Western Reserve University), human retinal pigment epithelial (RPE) cells (ARPE-19; American Type Culture Collection, ATCC, Manassas, VA), and mouse endothelial […]) transduced with Src shRNA or control encoding lentiviral vectors were cultured in complete media. Mouse brain endothelial cells expressing WT or DN EGFR were isolated as described. Endothelial cells were cultured in medium containing Endothelial Cell Growth Supplement (ECGS; Sigma-Aldrich, St Louis, MO). Mammalian cells were infected with tachyzoites of the RH or PTG stains of T. gondii; RH strain was used unless otherwise indicated. Cells were fixed at 2 hours or 24 hours followed by staining using Hema 3 Manual Staining System (Fisherbrand, Hampton, NH). At least 100 to 200 cells per monolayer were counted by examining a minimum of 5 random areas per monolayer. The percentage of infected cells, tachyzoites and vacuoles per 100 cells, and tachyzoites per vacuole were counted using light microscopy. Three independent experiments were performed. Saracatinib, Gefitinib (LC Laboratories, Woburn, MA) and lysosomal inhibitors leupeptin and pepstatin (10 μM; Millipore Sigma, Burlington, MA) were used in specified experiments. Each cell monolayer was generated and infected independently.

Akt = assay: Immunoblot of phospho-S473 Akt in T. gondii-infected CHO cells; assay type: cell-based, Chinese Hamster; conditions: lysates at 2 h
Experimental: FIGS. 4(A-C) illustrate Src inhibition induces T. gondii killing by impairing Akt activation. (A) CHO cells were challenged with RH-T. gondii. Cell lysates collected at 2 h were probed for Akt and phospho-S473 Akt. Relative density of phospho-Akt was normalized to total Akt and compared to the uninfected sample. Densitometry graph shown as mean±SEM from 3 independent experiments. (B-C) CHO cells or primary brain endothelial cells were transfected with plasmids encoding HA-tagged CA- or HA-tagged WT-Akt. Lysates were probed for actin, HA, Akt and phospho-S473 Akt. Cells were challenged with T. gondii and treated with Saracatinib (1 μM). Cell lysates collected at 2 h were probed for Akt and phospho-S473 Akt. Relative density of phospho-Akt and densitometries were examined as above. Percentages of infected cells and tachyzoites per 100 cells were assessed at 24 h. Data are shown as mean±SEM. The graphs show data from 6 independent monolayers pooled from 3 different experiments. Data points are shown as circles, triangles, or squares corresponding to individual monolayers within each experiment. […]

PTEN = assay: Confocal microscopy of PTEN and GRA7 around parasites in CHO cells; assay type: cell-based, Chinese Hamster; conditions: RFP-T. gondii
Experimental: Mammalian cells were infected with RFP-T. gondii (RH) and fixed with 4% paraformaldehyde. Cells were stained with antibodies against LC3 (MBL International, Woburn, MA), LAMP1 (DSHB, Iowa City, IA), or GRA7 (gift from John Boothroyd, Stanford University, Stanford, CA) followed by a fluorescently conjugated secondary antibodies (Jackson ImmunoResearch Laboratories, West Grove, PA). LC3 and LAMP1 were evaluated for accumulation at 5- and 7 hours post-infection, respectively. Cells were stained with antibodies against PTEN (Santa Cruz Biotechnology, Dallas, TX) or anti-phospho S473 Akt (Novus, Centennial, CO). Frozen brain sections were stained with antibodies against PTEN (Novus, Centennial, CO), phospho S473 Akt, SAG-1 (Invitrogen, Waltham, MA) or T. gondii (Biogenex, Fremont, CA). Parasites were evaluated blindly in multiple random fields of view and 100 parasites were examined per group. In-out assays were performed as described using RFP-T gondii, anti-SAG-1 antibody (Invitrogen, Waltham, MA) and an Alexa Fluor 488-conjugated secondary antibody. Olympus FV1200 confocal microscope (Evident/Olympus, Waltham, MA) equipped with UPlanSApa 60× and 100× 1.45NA objectives was used to evaluate the slides.

ME49 T. gondii [3] = assay: Ocular and cerebral toxoplasmosis in Dexamethasone-treated mice; assay type: in vivo, C57BL/6 mice; conditions: 10 mg kg-1 twice per day, 2 weeks, vs vehicle
From the text: Female mice between the ages of 6 to 8 weeks old were infected with 10 cysts of the ME49 T. gondii for four weeks.

EGS T. gondii cysts = assay: Parasite cysts in CHO cells infected with EGS T. gondii; assay type: cell-based, Toxoplasma gondii; conditions: Saracatinib 1 μM, 4 days
From the text: We infected CHO cells with EGS T. gondii, a strain of the parasite that spontaneously form cysts in vitro.

ME49 T. gondii [4] = assay: Ocular and cerebral toxoplasmosis in Becn1+/+ and Becn1+/- mice; assay type: in vivo; conditions: 10 mg kg-1, 2 weeks
PI3K = assay: Immunoblot of phospho-Y199 PI3K in T. gondii-infected CHO cells; assay type: cell-based, Chinese Hamster; conditions: lysates at 2 h
Experimental: Membranes were probed with antibodies against Src, phospho-Y416 Src, Akt, phospho-S473 Akt, PTEN, phospho-[…] PTEN, PI3K, phospho-Y458/Y199 PI3K, ULK1, EGFR, HA tag (all from Cell Signaling, Danvers, MA), phospho-Y240 PTEN (Sigma) and Actin (Santa Cruz Biotechnologies) followed by incubation with secondary antibodies (Cell Signaling and Santa Cruz Biotechnologies). Three independent experiments were performed.

[5] = CHO cells transfected with CA Akt, 1 μM, 24 h
[6] = CHO cells transfected with WT Akt, 1 μM, 24 h
[7] = EGFR+ CHO cells, RH T. gondii, indicated concentrations, 24 h

Compound: CN1CCN(CCOc2cc(OC3CCOCC3)c3c(Nc4c(Cl)ccc5c4OCO5)ncnc3c2)CC1 [Saracatinib, N-(5-chloro-1,3-benzodioxol-4-yl)-7-(2-(4-methylpiperazin-1-yl)ethoxy)-5-(tetrahydro-2H-pyran-4-yloxy)quinazolin-4-amine]
- load of tissue cysts (ME49 T. gondii [1]): neither the low dose Saracatinib nor the low dose Pyrimethamine decreased
- predicted brain concentrations [2]: ~0.2 µM
- toxoplasmacidal activity (T. gondii; 0.3 μM): significantly reduced
- toxoplasmacidal activity (T. gondii; 1 μM, infected host cells): kills T. gondii
- toxoplasmacidal activity (T. gondii; CHO cells infected with type I (RH) or Type II (PTG) strains, 1 μM, 2 h and 24 h): toxoplasmacidal activity
- effects on infected cells and tachyzoites per 100 cells compared with Gefitinib (T. gondii; CHO cells stably transfected to express EGFR, 24 h): more striking than the effects of Gefitinib
- number of tachyzoites per 100 cells (T. gondii; [5]): no reduction
- percentage of infection (T. gondii; [5]): no reduction
- number of tachyzoites per 100 cells (T. gondii; [6]): reduced
- percentage of infected cells (T. gondii; [6]): reduced
- parasite replication (tachyzoites per vacuole) (T. gondii; CHO cells, 1 μM, 24 hours): did not affect
- killing of T. gondii in cells made deficient in PTEN (T. gondii; CHO cells, PTEN siRNA, 24 h): no longer able to kill T. gondii
- percentage of infected cells (T. gondii; [7]): dose-dependent significant decrease
- tachyzoites per 100 cells (T. gondii; [7]): dose-dependent significant decrease
- anti-T. gondii activity in ULK1-deficient cells (T. gondii; ULK1 siRNA, CHO and brain endothelial cells, 24 h): unable to exhibit anti-T. gondii activity
- anti-T. gondii activity in presence of Leupeptin and Pepstatin A (T. gondii; lysosomal inhibitors 10 μM added post-infection): ablated
- toxoplasmacidal activity in cells made deficient in Src (T. gondii; mHEVc cells transduced with Src shRNA, 1 μM): no toxoplasmacidal activity was detected
- T. gondii-induced phosphorylation of Akt at Ser473 (Akt): abrogated
- association of PTEN to the PVM (PTEN): co-expression of PTEN and GRA7
- histopathology in the eye and brain (ME49 T. gondii [3]): significantly reduced
- parasite load in the eye and brain (ME49 T. gondii [3]): significantly reduced
- morphology of bradyzoites in remaining cysts (EGS T. gondii cysts): altered morphology
- reduction in the number of cysts (EGS T. gondii cysts): ~60%
- ocular and cerebral histopathology (ME49 T. gondii [4]; Becn 1+/+ mice): improvement
- parasite load (ME49 T. gondii [4]; Becn 1+/+ mice): improvement
- response of histopathology and parasite loads (ME49 T. gondii [4]; autophagy-deficient Becn 1+/- mice): did not respond
- Y199 phosphorylation of PI3K (PI3K): inhibited
